Results on eight compounds are retold here after paper PMC12458024, “Stabilizing a Native Fold of Alpha-Synuclein with Short Helix-Constrained Peptides” (JACS Au, 2025).

“Also recorded” adds a separate entry of the source. Positions of bridges follow the written chain, without caps; N, C: chain ends. Residues, ends and D or L forms follow the SMILES beside them.

The nature of data set [1]: Circular dichroism: fractional helicity with and without DMPS SUVs (lipid binding). Format: physicochemical. Conditions: CD, 20 μM peptide, 20 mM phosphate buffer pH 6.5, 30 °C, mean of three independent measurements; for Fractional helicity (fH) with DMPS: 1000 μM DMPS vesicles; for Fractional helicity (fH) no DMPS: no lipid. Here is the method: Far UV CD spectra scans were then recorded of the solutions on a Chirascan V100 (Applied Photophysics), at 30 °C, in a 1 mm path length quarts cuvette, scanning from 280–190 nm with a 1 nm bandwidth, averaged over 3 scans and blanked against the solutions containing the relevant DMPS vesicles in 20 mM phosphate buffer (pH 6.5).
Fractional helicity (fH) was calculated according to the equation fH=(θ222−θc)/(θ222∞−θc) where θ222∞ = (−44,000 + 250T)*(1 – k/Nr) and θc = 2220 – 53T. In these equations, the wavelength-dependent constant k = 2.4, Nr = the number of residues, and T is the temperature, 30 °C. ,
Background: CD spectra are sensitive to the conformation of chiral molecules.

Another data set has as its target T1, αS1–140 (Homo sapiens, UniProt P37840).
T1 construct: pET21a plasmid encoding human wild-type αS1–140; made in house; host or cells: E. coli BL21 (DE3)
Briefly: Lipid-induced αS aggregation assay (ThT kinetics). Format: biochemical. Conditions: 100 μM αS1–140, 50 μM ThT, 50 μM DMPS SUVs, 20 mM phosphate pH 6.5, 30 °C; peptide 100 and 500 μM; n = 3. The protocol: Dry DMPS lipid powder was accurately weighed using a Sartorius ultramicro balance and dissolved in 20 mM sodium phosphate buffer (pH 6.5) to a final concentration of 2 mM. The lipid was solubilized by shaking in a 2 mL Eppendorf tube on a Thermomixer compact (Eppendorf) at 45 °C, 1400 rpm for 3 h. The solution was then freeze–thawed five times using dry ice and a thermomixer (45 °C, 500 rpm). Vesicle formation was completed by sonication, using a Bandelin Sonopuls sonicator equipped with a TS102 probe, set to 20% amplitude, for 15 cycles (30 s on/30 s off). Vesicles were freshly prepared on the day of use. The SUVs prepared have an average diameter of approximately 30–40 nm, as characterized by dynamic light scattering (DLS) as previously described. This corresponds to vesicle concentrations in the low micromolar range.
Lipid-induced aggregation experiments were monitored using a CLARIOstar fluorescence microplate reader (BMG Labtech) under quiescent conditions (no shaking) at 30 °C. Experiments were conducted in black, clear-bottom 96-well half-area polystyrene plates with a nonbinding surface (Corning #3881), sealed with aluminum Thermowell sealing tape (Corning #6570). Each well contained 100 μL of reaction volume, run in triplicate, comprising 100 μM αS, 50 μM ThT, 50 μM DMPS (monomeric equivalent), 0.01% sodium azide, and varying concentrations of peptide (0 μM to 1 mM), all in 20 mM phosphate buffer (pH 6.5).
Instrument settings included a focal height of 4.9 mm and a gain of 800, with an excitation filter of 440 ± 15 nm, an emission filter of 480 ± 15 nm, and a 460 nm dichroic cutoff. Readings were collected from the bottom optic using a spiral averaging (4 mm diameter) with 50 flashes per well, and measurements were taken every 1200 s. The outer wells of the plate were not used to avoid evaporation

Another data set can be described thus: circular dichroism. The conditions noted are these: 20 mM phosphate; pH 6.5; 30 °C; 20 uM.
Data set [2] has as its system SH-SY5Y cells. Description: Alamar Blue toxicity assay. Format: cell-based, human. Conditions: 0–20 μM RhoB-labeled peptide, 30–36 h, relative to untreated controls. Here is the method: (§1) SH-SY5Y cells were plated at a density of 5,000 cells well^–1 in a half-area 96-well plate. Twenty-four hours after plating, the media was removed and replaced with media containing 10 or 20 μM of rhodamine-B labeled peptide or the equivalent volume of PBS. Cells were incubated with peptides for a further 30–36 h. As a positive control for cell lysis, 3 wells of cells were treated with 5% Triton-X 100 for 20 min, and then 20 μL of media was harvested from all wells for ToxiLight analysis according to the manufacturer’s instructions (Lonza Biologics PLC, LT07–217). Cells were then washed once with PBS and incubated for 90 min with a 1:10 dilution of AlamarBlue reagent (Invitrogen, DAL1025). Media was harvested and the fluorescence measured according to the manufacturer’s instructions. Cells were then washed twice with PBS and incubated with a 1:12.5 dilution of NucBlue (ThermoFisher Scientific, R37605) and a 1:500 dilution of CellTracker Deep Red (Invitrogen, C34565) in media for a further 30 min. Cells were then washed 2 more times in PBS and imaged.
For orientation: The colour change of resazurin is a common sign of viable cells or microbes.

The subject of another data set is N2 C. elegans. The conditions noted are these: dosed at L4, 0–100 μM, day 5 of adulthood.
The test system of data set [3] is SH-SY5Y cells. Description: ToxiLight toxicity assay. Conditions: 0–20 μM RhoB-labeled peptide, 30–36 h, Triton X-100 positive control. Format: cell-based, human. Here is the method: as §1
The nature of data set [4]: Peptide stability in human serum. Format: in vitro ADME. The conditions noted are these: normal human serum, 30 μM peptide, 37 °C, analytical HPLC peak area normalized to t = 0, triplicate; read-out: Peptide remaining intact in human serum at 48 h. Here is the method: Serum stability assays were performed in normal human serum. Peptide stocks were initially prepared at 600 μM in H2O, and 75 μL of this stock was added to 1425 μL of normal human serum (Merck), yielding a final concentration of 30 μM. Samples were incubated at 37 °C, and 100 μL aliquots were collected at designated time points (0, 1, 2, 3, 4, 6, 22, 24, and 48 h) and then immediately stored at −80 °C. After all time points, the samples were thawed and mixed with 300 μL of acetonitrile:water (3:1, v/v) by vortexing to ensure complete mixing. Following centrifugation at 14500 rpm for 20 min, 200 μL of the supernatant was analyzed by HPLC using a Phenominex Luna 5 μm C18 100 Å analytical column, eluted with a 0–50% acetonitrile gradient containing 0.1% TFA. Peak areas were integrated and normalized to the 0-h sample. Each peptide was tested in triplicate.

Method for N2 C. elegans: The C. elegans strain N2 was used as the control, while the transgenic strain NL5901 (unc-54p::αS::YFP), which expresses αS fused to YFP in the body wall muscle cells, was used to model the PD motility phenotype. Worms were synchronized by bleaching with sodium hypochlorite, and the eggs were resuspended in M9 buffer and incubated overnight at 20 °C with shaking (50 rpm) to hatch. Larvae were then transferred to nematode growth medium (NGM) agar plates seeded with E. coli OP50 as a food source and incubated in the dark at 20 °C until they reached the L4 stage.
L4-stage worms were transferred to fresh NGM agar plates containing 75 μM 5-fluoro-2’deoxyuridine (FUdR), to prevent reproduction, and seeded with E. coli OP50 as a food source. […] Nematodes were incubated in the dark at 20 °C for 5 days. Following incubation, 15 worms per condition were picked using a worm pick and placed in a drop of M9 media on a microscope slide. Movements were recorded immediately for a period of 30 s. For each condition, 5 worms per video were manually scored for the number of body bends per minute. […] A body bend was defined as a full oscillation, where the head returned to a point on the same side.

Turning to `CSCC[C@@H]1NC(=O)[C@H](Cc2ccccc2)NC(=O)[C@@H](NC(=O)[C@H](CC(=O)O)NC(C)=O)CCCCNC(=O)C[C@@H](C(=O)N[C@@H](CC(C)C)C(=O)N[C@@H](CO)C(=O)N[C@@H](CCCCN)C(=O)N[C@@H](C)C(=O)N[C@@H](CCCCN)C(N)=O)NC(=O)[C@H](CCCCN)NC1=O` [αS2–12(L2)] (Ac-DKFMKDLSKAK-NH2; lactam 2-6), in data set [1], the “Fractional helicity (fH) with DMPS” value was 14.5% and the “Fractional helicity (fH) no DMPS” value stood at 30.9%. For the same compound, the “Effect on lipid-induced αS1–140 aggregation (ThT)” value (“Effect” for short) on αS1–140 was “most effective inhibition”.
Take `CSCC[C@H](NC(=O)[C@H](Cc1ccccc1)NC(=O)[C@@H](NC(=O)[C@H](CC(=O)O)NC(C)=O)C(C)C)C(=O)N[C@@H](CCCCN)C(=O)NCC(=O)N[C@@H](CC(C)C)C(=O)N[C@@H](CO)C(=O)N[C@@H](CCCCN)C(=O)N[C@@H](C)C(=O)N[C@@H](CCCCN)C(N)=O` (Ac-DVFMKGLSKAK-NH2): in “circular dichroism”, the helicity was found to be 8.1%.
Regarding `CSCC[C@H](NC(=O)[C@H](Cc1ccccc1)NC(=O)[C@@H](NC(=O)[C@H](CC(=O)O)NC(C)=O)C(C)C)C(=O)N[C@@H](CCCCN)C(=O)NCC(=O)N[C@H]1CCCCNC(=O)C[C@@H](C(N)=O)NC(=O)[C@H](C)NC(=O)[C@H](CCCCN)NC(=O)[C@H](CO)NC1=O` [αS2–12(L7)] (Ac-DVFMKGKSKAD-NH2; lactam 7-11), in data set [1], the “Fractional helicity (fH) with DMPS” value stood at 16.8% and the “Fractional helicity (fH) no DMPS” value is given as 15.8%. In addition, the “Effect” value at αS1–140 was “enhanced αS aggregation”.
`CC(=O)N[C@@H](CC(=O)O)C(=O)N[C@H](C(=O)N[C@@H](Cc1ccccc1)C(=O)N[C@H]1CCCCNC(=O)C[C@@H](C(=O)N[C@@H](CCCCN)C(=O)N[C@@H](C)C(=O)N[C@@H](CCCCN)C(N)=O)NC(=O)[C@H](CC(C)C)NC(=O)CNC(=O)[C@H](CCCCN)NC1=O)C(C)C` [αS2–12(L4)] (Ac-DVFKKGLDKAK-NH2; lactam 4-8): in data set [1], the “Fractional helicity (fH) with DMPS” value is 27.7% and the “Fractional helicity (fH) no DMPS” value is 12.4%. The “Effect” value at αS1–140 was “enhanced αS aggregation”.
In “circular dichroism”, `CSCC[C@H](NC(=O)[C@H](Cc1ccccc1)NC(=O)[C@@H](NC(=O)[C@H](CC(=O)O)NC(C)=O)C(C)C)C(=O)N[C@@H](CCCCN)C(=O)N[C@H]1CCCCNC(=O)C[C@@H](C(=O)N[C@@H](CCCCN)C(N)=O)NC(=O)[C@H](CCCCN)NC(=O)[C@H](CO)NC(=O)[C@H](CC(C)C)NC1=O` [αS2–12(L6)] (Ac-DVFMKKLSKDK-NH2; lactam 6-10) gave a helicity of 31.4%. The “Cytotoxicity, Alamar Blue” value in the data set on SH-SY5Y cells [2] is “No significant toxicity”. Besides, the “Thrashing rate of wild-type N2 worms” value in the data set on N2 C. elegans was “no change in thrashing rate”. Besides, in the data set on SH-SY5Y cells [3], the “Cytotoxicity, ToxiLight” value is recorded as “No significant toxicity”. The fraction remaining – broadly, what is left of the initial amount, in per cent – at 48 h, 30 μM in data set [4] stood at 16%.
Consider `CSCC[C@@H]1NC(=O)[C@H](Cc2ccccc2)NC(=O)[C@H](C(C)C)NC(=O)[C@@H](NC(C)=O)CCCCNC(=O)C[C@@H](C(=O)NCC(=O)N[C@@H](CC(C)C)C(=O)N[C@@H](CO)C(=O)N[C@@H](CCCCN)C(=O)N[C@@H](C)C(=O)N[C@@H](CCCCN)C(N)=O)NC1=O` [αS2–12(L1)] (Ac-KVFMDGLSKAK-NH2; lactam 1-5), for which, in data set [1], the “Fractional helicity (fH) with DMPS” value is 0.0% and the “Fractional helicity (fH) no DMPS” value stood at 0.0%. Besides, the “Effect” value on αS1–140 was “enhanced αS aggregation”.
Turning to `CSCC[C@H](NC(=O)[C@H](Cc1ccccc1)NC(=O)[C@@H](NC(=O)[C@H](CC(=O)O)NC(C)=O)C(C)C)C(=O)N[C@H]1CCCCNC(=O)C[C@@H](C(=O)N[C@@H](C)C(=O)N[C@@H](CCCCN)C(N)=O)NC(=O)[C@H](CO)NC(=O)[C@H](CC(C)C)NC(=O)CNC1=O` [αS2–12(L5)] (Ac-DVFMKGLSDAK-NH2; lactam 5-9), in data set [1], the “Fractional helicity (fH) with DMPS” value stood at 3.3% and the “Fractional helicity (fH) no DMPS” value is 28.9%.
On to `CSCC[C@@H]1NC(=O)[C@@H](NC(=O)[C@@H](NC(=O)[C@H](CC(=O)O)NC(C)=O)C(C)C)CCCCNC(=O)C[C@@H](C(=O)N[C@@H](CO)C(=O)N[C@@H](CCCCN)C(=O)N[C@@H](C)C(=O)N[C@@H](CCCCN)C(N)=O)NC(=O)CNC(=O)[C@H](CCCCN)NC1=O` [αS2–12(L3)] (Ac-DVKMKGDSKAK-NH2; lactam 3-7), for which, in data set [1], the “Fractional helicity (fH) with DMPS” value came to 2.9% and the “Fractional helicity (fH) no DMPS” value is 14.6%. For the same compound, the “Effect” value on αS1–140 was “most effective inhibition; also recorded: greatest inhibition of αS1–140 aggregation”.
